Consider 1 substance from patent US20110151006A1, “STIMULI-RESPONSIVE HYDROGEL” (priority 2008, published 2011).

For assay [1], the target named is T1, GyrB (gyrase subunit B) (Escherichia coli, UniProt P0AES6).
T1 construct: GyrB migrates predominantly at its predicted size of 27 kDa; made in house; host or cells: E. coli BL21 STAR (DE3)
Description: Ultrafiltration study of coumermycin-induced GyrB dimerization. The format is biochemical, E. coli. The note with it: 50 kDa molecular weight cut-off filter; GyrB:coumermycin=2:1; GyrB without coumermycin gave 54%.

Assay [2] deals with T1, GyrB (gyrase subunit B). Description: Antibiotic-triggered GyrB dimerization, DMS crosslinking and SDS-PAGE. It is filed as biochemical, E. coli. The note with it: GyrB:coumermycin=2:1, mol/mol; DMS crosslinking; denaturing PAGE; dimer at 54 kDa. The method, then:
The gene for E. coli gyrase subunit B (gyrB) is tagged with the coding sequence for six histidine residues. The coding region is placed under the control of the phage T7-derived promoter and expressed in E. coli as a soluble cytoplasmatic protein. GyrB is purified via the hexahistidine tag using Ni^2+-based affinity chromatography. Coumermycin-induced dimerization of genetically engineered GyrB is evaluated by incubating the protein in the presence or absence of coumermycin (GyrB:coumermycin=2:1, mol/mol) with subsequent addition of the amine-specific bifunctional crosslinking agent dimethyl-suberimidate (DMS) and analysis of the complexes on denaturing polyacrylamide gel electrophoresis. […]
Concentration of GyrB is analyzed by the Bradford method (Biorad, Muünchen, Germany, cat. no. 500-0006) using BSA as standard. […] Antibiotic-triggered dimerization of GyrB is analyzed by incubating GyrB in the presence coumermycin A1 (GyrB:coumermycin=2:1, mol/mol; Sigma, St. Louis, Mo., cat. no. C9270) for 30 min at room temperature following covalent crosslinking of the dimers by addition of dimethyl suberimidate×2HCl (DMS, SigmaAldrich, St. Louis, Mo., cat. no. 179523) at a 10-fold molar excess with respect to GyrB for 60 min at room temperature. The dimers are analyzed on SDS-PAGE. […]

In assay [3] the target is T2, hexahistidine-tagged GyrB (Escherichia coli, UniProt P0AES6).
T2 construct: GyrB migrates predominantly at its predicted size of 27 kDa; made in house; host or cells: E. coli BL21 STAR (DE3)
Description: Antibiotic-dependent hydrogel formation (GyrB released into buffer). On the set-up: species or system E. coli. The note with it: GyrB:coumermycin=2:1 or ten-fold molar excess of novobiocin; mixed with poly(AAm-co-Ni2+-NTA-AAm); 12 hours in PBS. The text has this:
The protein is subsequently mixed with poly(AAm-co-Ni^2+-NTA-AAm) at a ratio of one GyrB per 11 Ni^2+ ions chelated in the polymer backbone.

With coumermycin A1, on GyrB (gyrase subunit B) [1], the “GyrB protein in filtrate” value was determined as 2.8%. Also, the GyrB dimer formation result at GyrB (gyrase subunit B) [2] is “substantial dimer formation”. Besides, the “GyrB-polymer complexes released into the buffer / hydrogel formation” value in assay [3] was “significantly reduced”.
